# Results taken from US20080260714A1, “Fibrin Compositions Containing Strontium Compounds” (BAXTER INTERNATIONAL INC., priority 2007, published 2008).
# How the values were obtained:
# [1] = test system: osteosarcoma cell line UMR-106; details: for PTH bioactivity: 24 h pre-incubation of UMR-106 cells with 20 mM salt prior to TGplPTH treatment, five experiments; for synergistic effect with PTH in generation of cAMP: UMR-106 osteoblast cells, 20 mM salt
# Protocol: The present example describes in vitro studies on rat osteosarcoma cells to investigate if a combination of parathyroid hormone (PTH) and Strontium (used as SrCl2) on activation of bone formation factors like increased cAMP production in osteoblasts.
# The osteosarcoma cell line UMR-106 (NewLab Bioquality AG, Erkrath, Germany) was used to perform the bioassay.
# UMR-106 cells were seeded in growth medium at a density of 30000 cells/cm^2 and incubated at 37° C./8.0% CO2 After 24 hours, medium was exchanged with either fresh medium, medium containing 20 mM SrCl2 or medium containing 20 mM CaCl2. Cells were further incubated at 37° C./8.0% CO2 for 24 hours. Cells were harvested according to the following procedure:
# Cells were washed twice with HBSS and detached from the surface using 6 ml trypsine/EDTA for 3 min at room temperature. Trypsin digestion was stopped with 12 ml growth medium. Following centrifugation (3 min, 1000 rpm, RT) cells were resuspended in 12 ml starvation medium and counted with a CASY cell counter. The rate of dead cells was below 10% in every experiment. Cells were resuspended to a final concentration of 1.6×10^6 cells/ml in starvation medium. 50 μl of cell suspension was transferred into each well of a 96-well plate and incubated for 30 min at 37° C., 8.0% CO2.
# Samples were diluted in freshly prepared starvation medium containing 2 mM IBMX (SI medium). For preparation of SI-medium 30 μl of a 0.67M IBMX stock in DMSO was added to 10 ml of starvation medium.
# All sample dilutions were prepared with this medium to inhibit phosphodiesterase activity in UMR-106 cells (Janik, P., 1980; Chasin M. and Harris, D. N., 1976). 50 μl of diluted samples (as indicated in results) were added to the cells after 30 min incubation at 37° C. For cAMP production cells were incubated for 1 h at 37° C., 8.0% CO2. Each sample concentration was added to cells at least in duplicates following cAMP analysis in duplicates.
# Cell lysis and dilution of cAMP For extraction of cAMP 100 μl of cell suspension containing PTH was incubated with 25 μl (final dilution 1:5) lysis reagent solvent 1A that is part of the cAMP Biotrak EIA kit (GE Healthcare). For total lysis, cells were shaken for 15 min at 500 rpm at room temperature. […]
# Data analysis. The optical density was determined in a plate reader (Synergy HT) by measuring the absorbance of the samples at 450 nm using the software KC4. […]
# cAMP concentration of the samples. Taking into account the dilution factor (20×) the produced cAMP amounts were calculated using the parameters (slope and intercept) of the standard curve.
# Preparation of Samples for Bioassay Analysis. […] For all samples and all dilutions, mean values of OD450, standard deviations, cAMP concentrations and coefficients of variations were calculated.
# [2] = test system: SaOS-2 cell
# Protocol: For the initial experiments, cells were seeded on the surface of clots.
# [3] = test system: human osteoblast-like cells (SaOS-2); test: alkaline phosphatase production of cells grown on fibrin clots; format: cell-based; details: SaOS-2 on clots containing strontium; production over 30 minutes; preliminary result
# Protocol: (§1) For in-vitro experiments, the clots were prepared by pipetting 150 μl of the fibrinogen solution to the wells of a 24 well plate. The plate was put on plate shaker to ensure an even distribution over the well bottom. 150 μl of the thrombin solution was then added to the well and the plate was put on a plate shaker to ensure homogeneous clots. A human osteoblast-like cell line (SaoS-2) was cultured on the clots for up to 7 days to see if any differences in cell proliferation/cell differentiation could be observed.
# These experiments are being repeated with a 14 day investigative period.
# [4] = turbidimetric analysis of clots; format: physicochemical; details: strontium containing clots in comparison to calcium containing clots
# Protocol: In addition to the cell studies observation, turbidmetric analysis was carried out to examine if the clot structure was altered as a result of the strontium (FIG. 4) The clot turbidity is directly proportional to average cross-sectional area of the fibres, therefore the more turbid the clot the greater the fiber diameter.
# [5] = test system: human osteoblast-like cells (SaOS-2); test: Alamar Blue proliferation of cells grown on fibrin clots; format: cell-based; details: SaOS-2 on clots up to 7 days; Sr salt in thrombin dilution buffer; compared to normal clot with 20 mM CaCl2
# Protocol: as §1
SMILES,PTH bioactivity [1],synergistic effect with PTH in generation of cAMP [1],"time at which cell death occurs ([2]; SaOS-2, 12.5 mM CaCl2 in medium)","cell survival / proliferation (MTS assay) ([2]; SaOS-2 on tissue culture plastic, medium with 12.5 mM Sr or Ca)",alkaline phosphatase expression [3],clot turbidity (kinetics and absorbance) [4],proliferation (Alamar Blue) [5]
"[Ca+2].[Cl-].[Cl-] [CaCl2, calcium chloride, reference compound]",no change in PTH bioactivity,No such effect,≤ 24 h,Cell death,–,–,–
"[Cl-].[Cl-].[Sr+2] [SrCl2, Strontium Chloride]",twofold increased bioactivity,positive synergistic effect,–,–,increase in alkaline phosphatase expression,very little difference in the kinetics and absorbance,significant increased proliferation
CC(=O)[O-].CC(=O)[O-].[Sr+2] [Strontium Acetate],–,–,–,–,appear not to be significant,–,–
